Test results taken from US7675626B2, “Method of detecting drug resistant microorganisms by surface plasmon resonance system” (priority 2006, dated 2010).
Values joined by “and” are separate entries in the source; they are usually repeats but may differ in a detail not shown here. Equal entries are not always repeated.

Tests used:
[1] = test system: ampicillin resistant strain (JM109 transformed by ampicillin resistant plasmid); assay: SPR angle shift, ampicillin resistance test (resistant strain); assay type: cell-based, E. coli
Excerpt: (§1) On setting up the surface plasmon resonance, a He—Ne laser (wavelength=632.8 nm) was used as the light source. The laser beam passed through the polarizer to block […], and only p-polarization component could excite surface plasmon. The transmitted p-polarization beam was split into two beams via beam splitter (BS), one beam was detected by photodiode as reference light, and the other beam injected into prism at specific range of angles to decide surface plasmon angle. The reflected light was detected via the photodiode in the opposite side of prism as signal light. Surface plasmon was excited on Au metal film deposited on flat glass surface which attached on prism via matching oil. The current signal detected by photodiode was expanded via amplifier and transformed into voltage signal via 16-bit A/D converter (Adventech PCI-1716) The Y-axial represented the ratio of reference light and signal light, X-axial represented the incident angle of interface between prism and sample. Incident angle was controlled by controller which motor motorized stage with two arms. When surface plasmon resonance angle was detected, the energy of injected light was absorbed and surface plasmon resonance was achieved. This experimental setup was build by National Cheng-Kung University, department of Engineering Science, Adaptic Photonic Lab.
(§2) The bacteria used herein were JM109 strain, which was recA1 mutation that helped ensure insert stability. EndA1 mutation improved the quality of the plasmid miniprep DNA. HsdR17 mutation prevented the cleavage of cloned DNA by an endogenous endonuclease system.
(§3) Penicillin was referred to β-lactam drugs because of the importance of the β-lactam ring. An intact ting structure was essential for antibacterial activity. The cleavage of the ring by penicillinase (β-lactamase) inactivated the drug. The antibiotic bacteria strain used herein was transformed by ampicillin resistant plasmid that translated β-lactamase to cleave the ring of ampicillin. The bacteria was picked out by loop and planted in 5 ml LB broth over night, then transferred into 100 ml LB and incubated for two hours.
(§4) Diluted Poly-L-Lysine solution with deionized water prior to coating slides. The flat glass surface deposited with Au metal film was immersed in poly-L-lysine solution (concentration is […]) for at least 24 hours to interact with Au metal film, cells can be immobilized on biochips after incubation.
(§5) The sterilized DI water was injected into the flow chamber for 30 min to stabilize the system when biochip coated with poly-L-lysine was assembled. After balancing, the incubated LA broth was injected into the flow chamber for 210 minutes to cover the AU metal film. Subsequently, antibiotic solution was injected, and the surface plasmon resonance curve was observed on the computer.
(§6) Surface plasmon resonance system measured SPR angle continuously, and compared SPR curve of antibiotic susceptible and antibiotic resistant strain under the same condition. The SPR curve of antibiotic resistant strain was depicted in FIG. 2, and antibiotic susceptible strain SPR curve was depicted in FIG. 3. Experimental data represented that after 30 minutes of balance of the SPR system, the injection of bacteria LB broth increased the SPR angle. After 210 minutes, the extra bacteria were washed with deionized water and presented the decrease of SPR angle, then balanced for 10-20 minutes. Antibiotic solution was injected after the balance curve. […]

[2] = test system: ampicillin susceptible strain (JM109); assay: SPR angle shift, ampicillin sensitivity test (susceptible strain); assay type: cell-based, E. coli; conditions: for susceptible surface plasmon resonance angle shift/resistant surface plasmon resonance angle shift: ratio susceptible/resistant strain
Excerpt: as §1, §2, §3, §4, §5, §6

CC1(C)S[C@@H]2[C@H](NC(=O)[C@H](N)c3ccccc3)C(=O)N2[C@H]1C(=O)O [ampicillin]
Ampicillin resistant surface plasmon resonance angle shift ([1]; Average of 4 repeats): −0.02935 | drop of SPR angle ([1]; standard kinetic plot (FIG. 2), after injection of antibiotics): −0.02128 degree | drop of SPR angle of resistant strain compared to susceptible strain ([1]; standard kinetic plot (FIGS. 2, 3)): approximately ⅓ | drop of SPR angle of resistant strain compared to susceptible strain ([1]; thirty minutes after antibiotic treatment): approximately ⅕ | drop of SPR angle ([1]; thirty minutes after antibiotic treatment (FIG. 4)): −0.00332 degree | Ampicillin susceptible surface plasmon resonance angle shift ([2]; Average of 4 repeats): −0.0659 | susceptible surface plasmon resonance angle shift/resistant surface plasmon resonance angle shift ([2]; Average of 4 repeats): 2.377 | susceptible surface plasmon resonance angle shift/resistant surface plasmon resonance angle shift ([2]; single repeat experiments): 1.9834 and 2.6208 and 3.2312 and 1.6729 | drop of SPR angle ([2]; standard kinetic plot (FIG. 3), after injection of antibiotics): −0.06876 degree | drop of SPR angle ([2]; thirty minutes after antibiotic treatment (FIG. 5)): −0.01702 degree
